# Measurements reported in US20260285850A1, “SUBSTITUTED OXAZOLIDINONES AND IMIDAZOLINONES AS HERBICIDES” (FMC CORPORATION, priority 2023, published 2026).
# Assays:
# Type in all cases: in vivo
# [1] = system: barnyardgrass (Echinochloa crus-galli); test: Test A preemergence soil spray, visual injury rating 0-100; settings: 10 days, 0 = no effect, 100 = complete control
# Procedure, shortened: (§1)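 Plants in a loam and sand soil blend were treated with each test chemical, in a non-phytotoxic solvent system including surfactant, either sprayed on seeded soil before emergence or applied after emergence at the one- to two-leaf stage. Ten days later in the greenhouse, plants were compared with untreated controls and visually rated from 0 (no effect) to 100 (complete control).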
# [2] = system: blackgrass (Alopecurus myosuroides); test: as above; settings: 10 days, 0 = no effect, 100 = complete control
# Procedure, shortened: as §1
# corn (Zea mays) [3] = test: as above; settings: 10 days, 0 = no effect, 100 = complete control
# Procedure, shortened: as §1
# [4] = system: green foxtail (Setaria viridis); test: as above; settings: 10 days, 0 = no effect, 100 = complete control
# Procedure, shortened: as §1
# kochia (Bassia scoparia) [5] = test: as above; settings: 10 days, 0 = no effect, 100 = complete control
# Procedure, shortened: as §1
# [6] = system: oat, wild (wild oat, Avena fatua); test: as above; settings: 10 days, 0 = no effect, 100 = complete control
# Procedure, shortened: as §1
# [7] = system: palmer (palmer amaranth, palmer pigweed, Amaranthus palmeri); test: as above; settings: 10 days, 0 = no effect, 100 = complete control
# Procedure, shortened: as §1
# [8] = system: ragweed (common ragweed, Ambrosia artemisiifolia); test: as above; settings: 10 days, 0 = no effect, 100 = complete control
# Procedure, shortened: as §1
# [9] = system: ryegrass, Italian (italian ryegrass, Lolium multiflorum); test: as above; settings: 10 days, 0 = no effect, 100 = complete control
# Procedure, shortened: as §1
# soybean (Glycine max) [10] = test: as above; settings: 10 days, 0 = no effect, 100 = complete control
# Procedure, shortened: as §1
# [11] = system: wheat (Triticum aestivum); test: as above; settings: 10 days, 0 = no effect, 100 = complete control
# Procedure, shortened: as §1
# [12] = system: barnyardgrass (Echinochloa crus-galli); test: Test A postemergence application, visual injury rating 0-100; settings: 10 days
# Procedure, shortened: as §1
# [13] = system: blackgrass (Alopecurus myosuroides); test: as above; settings: 10 days
# Procedure, shortened: as §1
# corn (Zea mays) [14] = test: as above; settings: 10 days
# Procedure, shortened: as §1
# [15] = system: galium (catchweed bedstraw, Galium aparine); test: as above; settings: 10 days
# Procedure, shortened: as §1
# [16] = system: green foxtail (Setaria viridis); test: as above; settings: 10 days
# Procedure, shortened: as §1
# [17] = system: horseweed (Erigeron canadensis); test: as above; settings: 10 days
# Procedure, shortened: as §1
# kochia (Bassia scoparia) [18] = test: as above; settings: 10 days
# Procedure, shortened: as §1
# [19] = system: oat, wild (wild oat, Avena fatua); test: as above; settings: 10 days
# Procedure, shortened: as §1
# [20] = system: palmer (palmer amaranth, palmer pigweed, Amaranthus palmeri); test: as above; settings: 10 days
# Procedure, shortened: as §1
# [21] = system: ragweed (common ragweed, Ambrosia artemisiifolia); test: as above; settings: 10 days
# Procedure, shortened: as §1
# [22] = system: ryegrass, Italian (italian ryegrass, Lolium multiflorum); test: as above; settings: 10 days
# Procedure, shortened: as §1
# soybean (Glycine max) [23] = test: as above; settings: 10 days
# Procedure, shortened: as §1
# [24] = system: wheat (Triticum aestivum); test: as above; settings: 10 days
# Procedure, shortened: as §1
# [25] = system: barnyardgrass (Echinochloa crusgalli); test: Test B flooded paddy test, visual plant response rating 0-100; settings: 250 g ai/ha, Flood, applied to paddy water, evaluated after 13 days
# Procedure, shortened: (§2)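 Visual scores versus untreated controls were recorded 13 days after treatment of greenhouse-held plants. At the 2-leaf stage, pots were flooded 3 cm above the soil surface and compounds added straight to the water.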
# [26] = system: ducksalad (Heteranthera limosa); test: as above; settings: 250 g ai/ha, Flood, applied to paddy water, evaluated after 13 days
# Procedure, shortened: as §2
# rice (Oryza sativa) = test: as above; settings: 250 g ai/ha, Flood, applied to paddy water, evaluated after 13 days
# Procedure, shortened: as §2
# [27] = system: sedge, umbrella (small-flower umbrella sedge, Cyperus difformis); test: as above; settings: 250 g ai/ha, Flood, applied to paddy water, evaluated after 13 days
# Procedure, shortened: as §2
# [28] = 31 g ai/ha, postemergence, 0 = no effect, 100 = complete control
# [29] = Postemergence, 125 g ai/ha, 0 is no effect, 100 is complete control
smiles,measurement,setting,value
CC1(C(=O)NC2C=CC(C(=O)OC3CCCC3)C2)CN(c2cc(F)cc(F)c2)C(=O)O1 (stereo not shown) [Compound 57],Barnyardgrass plant response rating (0-100),[1]; 31 g ai/ha,50
same,Barnyardgrass plant response rating (0 to 100 scale),[1]; 125 g ai/ha,100
same,Blackgrass plant response rating (0-100),[2]; 31 g ai/ha,70
same,Blackgrass plant response rating (0 to 100 scale),[2]; 125 g ai/ha,90
same,Corn plant response rating (0-100),corn (Zea mays) [3]; 31 g ai/ha,10
same,Corn plant response rating (0 to 100 scale),corn (Zea mays) [3]; 125 g ai/ha,90
same,"Foxtail, Green plant response rating (0-100)",[4]; 31 g ai/ha,0
same,"Foxtail, Green plant response rating (0 to 100 scale)",[4]; 125 g ai/ha,50
same,Kochia plant response rating (0-100),kochia (Bassia scoparia) [5]; 31 g ai/ha,0
same,Kochia plant response rating (0 to 100 scale),kochia (Bassia scoparia) [5]; 125 g ai/ha,90
same,"Oat, Wild plant response rating (0-100)",[6]; 31 g ai/ha,90
same,"Oat, Wild plant response rating (0 to 100 scale)",[6]; 125 g ai/ha,90
same,"Amaranth, Palmer plant response rating (0-100)",[7]; 31 g ai/ha,10
same,"Amaranth, Palmer plant response rating (0 to 100 scale)",[7]; 125 g ai/ha,70
same,Ragweed plant response rating (0-100),[8]; 31 g ai/ha,0
same,Ragweed plant response rating (0 to 100 scale),[8]; 125 g ai/ha,0
same,"Ryegrass, Italian plant response rating (0-100)",[9]; 31 g ai/ha,50
same,"Ryegrass, Italian plant response rating (0 to 100 scale)",[9]; 125 g ai/ha,100
same,Soybean plant response rating (0-100),soybean (Glycine max) [10]; 31 g ai/ha,50
same,Soybean plant response rating (0 to 100 scale),soybean (Glycine max) [10]; 125 g ai/ha,80
same,Wheat plant response rating (0-100),[11]; 31 g ai/ha,90
same,Wheat plant response rating (0 to 100 scale),[11]; 125 g ai/ha,100
same,Barnyardgrass plant response rating (0-100),[12]; [28],100
same,Barnyardgrass plant response rating (0 to 100 scale),[12]; [29],100
same,Blackgrass plant response rating (0-100),[13]; [28],90
same,Blackgrass plant response rating (0 to 100 scale),[13]; [29],90
same,Corn plant response rating (0-100),corn (Zea mays) [14]; [28],90
same,Corn plant response rating (0 to 100 scale),corn (Zea mays) [14]; [29],100
same,Galium plant response rating (0-100),[15]; [28],80
same,Galium plant response rating (0 to 100 scale),[15]; [29],80
same,"Foxtail, Green plant response rating (0-100)",[16]; [28],30
same,"Foxtail, Green plant response rating (0 to 100 scale)",[16]; [29],90
same,Horseweed plant response rating (0-100),[17]; [28],0
same,Horseweed plant response rating (0 to 100 scale),[17]; [29],60
same,Kochia plant response rating (0-100),kochia (Bassia scoparia) [18]; [28],80
same,Kochia plant response rating (0 to 100 scale),kochia (Bassia scoparia) [18]; [29],80
same,"Oat, Wild plant response rating (0-100)",[19]; [28],90
same,"Oat, Wild plant response rating (0 to 100 scale)",[19]; [29],90
same,"Amaranth, Palmer plant response rating (0-100)",[20]; [28],20
same,"Amaranth, Palmer / Pigweed, Palmer plant response rating (0 to 100 scale)",[20]; [29],70
same,Ragweed plant response rating (0-100),[21]; [28],40
same,Ragweed plant response rating (0 to 100 scale),[21]; [29],60
same,"Ryegrass, Italian plant response rating (0-100)",[22]; [28],90
same,"Ryegrass, Italian plant response rating (0 to 100 scale)",[22]; [29],90
same,Soybean plant response rating (0-100),soybean (Glycine max) [23]; [28],60
same,Soybean plant response rating (0 to 100 scale),soybean (Glycine max) [23]; [29],70
same,Wheat plant response rating (0-100),[24]; [28],90
same,Wheat plant response rating (0 to 100 scale),[24]; [29],90
same,"Plant response rating, Barnyardgrass (0 to 100 scale, 0 is no effect and 100 is complete control)",[25],90
same,"Plant response rating, Ducksalad (0 to 100 scale, 0 is no effect and 100 is complete control)",[26],100
same,"Plant response rating, Rice (0 to 100 scale, 0 is no effect and 100 is complete control)",rice (Oryza sativa),20
same,"Plant response rating, Sedge, Umbrella (0 to 100 scale, 0 is no effect and 100 is complete control)",[27],55
